Test results reported in US20050137220A1 (Pharmacia Corporation, priority 2003, published 2005).
pIC50: −log10 of the molar value. Structures can show the parent of a compound that is named as a salt.

system: U937 cells; assay: U937 Cell TNFα Release Assay; assay type: cell-based, human; conditions: Homo sapiens, U-937, 4 h, LPS-stimulated differentiated U937 cells, TNFα by ELISA; mixture of stereoisomers implied unless otherwise noted; read-out: TNF Release Assay Avg. IC50

Row | pIC50 | Compound
1 | 4.37 | O=C(O)C1c2[nH]c3ccc(O)cc3c2C2CCN1C2 (centres unmarked) [Example 2, 7-hydroxy-3,4,5,10-tetrahydro-1H-2,5-methanoazepino[3,4-b]indole-1-carboxylic acid hydrochloride]
2 | 4.82 | CSc1ccc2[nH]c3c(c2c1)C1CCN(C1)C3C(=O)O (centres unmarked) [Example 50]

same assay, conditions: Homo sapiens, U-937, 4 h, read-out: TNF Release Assay Avg. IC50, LPS-stimulated differentiated U937 cells, TNFα by ELISA; mixture of stereoisomers implied unless otherwise noted

Row | Compound | pIC50
3 | COc1ccc2[nH]c3c(c2c1)C(Cc1ccccc1)CNC3C(=O)O (stereo not drawn) [Example 71, 4-benzyl-6-methoxy-2,3,4,9-tetrahydro-1H-beta-carboline-1-carboxylic acid] | 4.27
4 | COC(=O)C1c2[nH]c3ccc(OC)cc3c2CCN1C (stereo not drawn) [Example 149, methyl 6-methoxy-2-methyl-2,3,4,9-tetrahydro-1H-beta-carboline-1-carboxylate] | 5.08
5 | NC(=O)c1ccc2[nH]c3c(c2c1)CCNC3C(=O)O (stereo not drawn) [Example 88, 6-(aminocarbonyl)-2,3,4,9-tetrahydro-1H-beta-carboline-1-carboxylic acid trifluoroacetate hydrate] | < 4.00
6 | O=C(O)C1NCCc2c1[nH]c1ccc(O)cc21 (stereo not drawn) [Example 33, 6-hydroxy-2,3,4,9-tetrahydro-1H-beta-carboline-1-carboxylic acid hydrochloride] | < 4.00
7 | COc1ccc2[nH]c3c(c2c1)C(C)CNC3C(=O)O (stereo not drawn) [Example 22, 6-methoxy-4-methyl-2,3,4,9-tetrahydro-1H-beta-carboline-1-carboxylic acid] | 4.04
8 | CCC1CNC(C(=O)O)c2[nH]c3ccc(OC)cc3c21 (stereo not drawn) [Example 21, 4-ethyl-6-methoxy-2,3,4,9-tetrahydro-1H-beta-carboline-1-carboxylic acid hydrochloride] | < 4.00
9 | O=C(O)C1NCCc2c1[nH]c1ccc(OCc3ccccc3)cc21 (stereo not drawn) [Example 64, 6-(benzyloxy)-2,3,4,9-tetrahydro-1H-beta-carboline-1-carboxylic acid hydrochloride] | 4.07
10 | COC(=O)C1NCCc2c1[nH]c1ccc(OC)cc21 (stereo not drawn) [Example 106, methyl 6-methoxy-2,3,4,9-tetrahydro-1H-beta-carboline-1-carboxylate hydrochloride] | 4.58
11 | COc1cccc2[nH]c3c(c12)CCNC3C(=O)O (stereo not drawn) [Example 103, 5-methoxy-2,3,4,9-tetrahydro-1H-beta-carboline-1-carboxylic acid hydrochloride] | 4.03
12 | COc1ccc2[nH]c3c(c2c1)CC(CO)NC3C(=O)O (stereo not drawn) [Example 24, 3-(hydroxymethyl)-6-methoxy-2,3,4,9-tetrahydro-1H-beta-carboline-1-carboxylic acid] | < 4.00
13 | COc1ccc2[nH]c3c(c2c1)CCN[C@@H]3C(=O)O [Example 67, (1S)-6-methoxy-2,3,4,9-tetrahydro-1H-beta-carboline-1-carboxylic acid] | < 4.00
14 | O=C(O)C1NCCc2c1[nH]c1ccc(F)cc21 (stereo not drawn) [Example 94, 6-fluoro-2,3,4,9-tetrahydro-1H-beta-carboline-1-carboxylic acid trifluoroacetate] | < 4.00

same assay, conditions: Homo sapiens, U-937, LPS-stimulated differentiated U937 cells, TNFα by ELISA; mixture of stereoisomers implied unless otherwise noted; read-out: TNF Release Assay Avg. IC50

Row | pIC50 | Compound
15 | 4.79 | COC(=O)C1c2[nH]c3ccc(OC)cc3c2C2CCN1C2 (centres unmarked) [Example 58, methyl 7-methoxy-3,4,5,10-tetrahydro-1H-2,5-methanoazepino[3,4-b]indole-1-carboxylate trifluoroacetate]
16 | < 4.00 | COc1ccc2[nH]c3c(c2c1)CC(CO)NC3=O (stereo not drawn) [Example 37, 3-(hydroxymethyl)-6-methoxy-2,3,4,9-tetrahydro-1H-beta-carbolin-1-one]

Row | Compound | pIC50
17 | O=C(OCc1ccccc1)C1c2[nH]c3ccc(O)cc3c2C2CCN1C2 (centres unmarked) [Example 63, benzyl 7-hydroxy-3,4,5,10-tetrahydro-1H-2,5-methanoazepino[3,4-b]indole-1-carboxylate hydrochloride] | 4.44

same assay, conditions: Homo sapiens, U-937, read-out: TNF Release Assay Avg. IC50, LPS-stimulated differentiated U937 cells, TNFα by ELISA; mixture of stereoisomers implied unless otherwise noted

Row | Compound | pIC50
18 | COc1ccc2[nH]c3c(c2c1)C1CCN(C1)C3C(=O)OC(C)C (centres unmarked) [Example 59, isopropyl 7-methoxy-3,4,5,10-tetrahydro-1H-2,5-methanoazepino[3,4-b]indole-1-carboxylate hydrochloride] | < 4.00
19 | C=CCOC(=O)C1c2[nH]c3ccc(OC)cc3c2C2CCN1C2 (centres unmarked) [Example 28, allyl 7-methoxy-3,4,5,10-tetrahydro-1H-2,5-methanoazepino[3,4-b]indole-1-carboxylate hydrochloride] | 4.84
20 | COC(=O)C1c2[nH]c3ccc(OCc4ccccc4)cc3c2C2CCN1C2 (centres unmarked) [Example 91, methyl 7-(benzyloxy)-3,4,5,10-tetrahydro-1H-2,5-methanoazepino[3,4-b]indole-1-carboxylate compound with trifluoroacetic acid (1:1)] | 4.62
21 | COc1ccc2[nH]c3c(c2c1)C1CCN(C1)C3C(=O)NCc1ccccc1 (centres unmarked) [Example 243, N-benzyl-7-methoxy-3,4,5,10-tetrahydro-1H-2,5-methanoazepino[3,4-b]indole-1-carboxamide hydrochloride] | < 4.00
22 | COc1ccc2[nH]c3c(c2c1)C1CCN(C1)C3C(=O)OCC(O)CO (centres unmarked) [Example 20, 2,3-dihydroxypropyl 7-methoxy-3,4,5,10-tetrahydro-1H-2,5-methanoazepino[3,4-b]indole-1-carboxylate hydrochloride] | < 4.00
23 | CCOC(=O)C1c2[nH]c3ccc(OC)cc3c2C2CCN1C2 (centres unmarked) [Example 92, ethyl 7-methoxy-3,4,5,10-tetrahydro-1H-2,5-methanoazepino[3,4-b]indole-1-carboxylate trifluoroacetate] | 5.25
24 | CCCCCCOC(=O)C1c2[nH]c3ccc(OC)cc3c2C2CCN1C2 (centres unmarked) [Example 93, hydrochloride] | 5.02
25 | COc1ccc2[nH]c3c(c2c1)C1CCN(C1)C3C(=O)OCC(C)(C)C (centres unmarked) [Example 84, hydrochloride] | 4.39
26 | COC(=O)C1c2[nH]c3ccc(O)cc3c2C2CCN1C2 (centres unmarked) [Example 40, methyl 7-hydroxy-3,4,5,10-tetrahydro-1H-2,5-methanoazepino[3,4-b]indole-1-carboxylate hydrochloride] | 4.59
27 | COc1ccc2[nH]c3c(c2c1)C1CCN(C1)C3C(=O)OCC1CCCCC1 (centres unmarked) [Example 99, cyclohexylmethyl 7-methoxy-3,4,5,10-tetrahydro-1H-2,5-methanoazepino[3,4-b]indinole-1-carboxylate hydrochloride] | 5.01
28 | COc1ccc2[nH]c3c(c2c1)C1CCN(C1)C3C(=O)OCCSC (centres unmarked) [Example 32, hydrochloride] | 4.52
29 | COc1ccc2[nH]c3c(c2c1)C1CCN(C1)C3C(=O)OCCF (centres unmarked) [Example 26, trifluoroacetate] | 5.69
30 | COc1ccc2[nH]c3c(c2c1)C1CCN(C1)C3C(=O)OC1CCCCC1 (centres unmarked) [Example 105, hydrochloride] | < 4.00

same assay, conditions: read-out: TNF Release Assay Avg. IC50; LPS-stimulated differentiated U937 cells, TNFα by ELISA; mixture of stereoisomers implied unless otherwise noted

Row | Compound | pIC50
31 | COC(=O)C1c2[nH]c3ccc(O)cc3c2CCN1C (stereo not drawn) [Example 150, methyl 6-hydroxy-2-methyl-2,3,4,9-tetrahydro-1H-beta-carboline-1-carboxylate] | 6.28

same assay, conditions: read-out: TNF Release Assay Avg. IC50; LPS-stimulated differentiated U937 cells, TNFα by ELISA; mixture of stereoisomers implied unless otherwise noted; hydrochloride

Row | Compound | pIC50
32 | CCCOC(=O)C1c2[nH]c3ccc(OC)cc3c2C2CCN1C2 (centres unmarked) [Example 90, propyl 7-methoxy-3,4,5,10-tetrahydro-1H-2,5-methanoazepino[3,4-b]indole-1-carboxylate hydrochloride] | 4.32
33 | COCCOC(=O)C1c2[nH]c3ccc(OC)cc3c2C2CCN1C2 (centres unmarked) [Example 35, hydrochloride] | 4.03

same assay, conditions: read-out: TNF Release Assay Avg. IC50; LPS-stimulated differentiated U937 cells, TNFα by ELISA; mixture of stereoisomers implied unless otherwise noted; trifluoroacetate

Row | Compound | pIC50
34 | CCCOC(=O)C1c2[nH]c3ccc(OC)cc3c2C2CCN1C2 (centres unmarked) [Example 61, propyl 7-methoxy-3,4,5,10-tetrahydro-1H-2,5-methanoazepino[3,4-b]indole-1-carboxylate trifluoroacetate] | 6.06
35 | COc1ccc2[nH]c3c(c2c1)C1CCN(C1)C3C(=O)OCc1ccccc1 (centres unmarked) [Example 31, benzyl 7-methoxy-3,4,5,10-tetrahydro-1H-2,5-methanoazepino[3,4-b]indole-1-carboxylate trifluoroacetate] | 4.34

target: MK-2 (Homo sapiens, UniProt P49137); assay: Determination of MK-2 IC50 (phosphorylation of HSP-peptide, anion exchange resin capture assay); assay type: biochemical; conditions: additional values are replicate IC50 experiments; mixture of stereoisomers implied unless otherwise noted; read-out: MK-2 Avg. IC50
Sequence (P49137 whole entry, species assumed): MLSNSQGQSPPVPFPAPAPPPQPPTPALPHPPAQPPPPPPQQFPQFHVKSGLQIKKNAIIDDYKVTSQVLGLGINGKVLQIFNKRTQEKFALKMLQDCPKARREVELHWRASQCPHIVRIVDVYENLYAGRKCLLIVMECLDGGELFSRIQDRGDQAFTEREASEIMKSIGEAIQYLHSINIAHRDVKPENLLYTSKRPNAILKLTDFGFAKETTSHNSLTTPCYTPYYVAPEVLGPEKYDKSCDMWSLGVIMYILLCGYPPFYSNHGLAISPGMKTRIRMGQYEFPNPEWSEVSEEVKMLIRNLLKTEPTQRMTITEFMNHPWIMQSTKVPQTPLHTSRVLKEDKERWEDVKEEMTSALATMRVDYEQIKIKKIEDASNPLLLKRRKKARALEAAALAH

Row | pIC50 | Compound
36 | < 3.70 | COc1ccc2[nH]c3c(c2c1)CCN1C(=O)CCC31C(=O)O (centres unmarked) [Example 163, 8-methoxy-3-oxo-2,3,6,11-tetrahydro-1H-indolizino[8,7-b]indole-11b(5H)-carboxylic acid]
37 | < 3.70 | O=C(O)C1(Cc2ccc3c(c2)OCO3)NCCc2c1[nH]c1ccccc21 (stereo not drawn) [Example 204, 1-[(benzodioxolan-5-yl)methyl]-2,3,4,9-tetrahydro-1H-beta-carboline-1-carboxylic acid]
38 | < 3.70 | COC1=C(C#N)Cc2c([nH]c3ccc(OC)cc23)C(=O)N1 [Example 269, 3,7-dimethoxy-1-oxo-1,2,5,10-tetrahydroazepino[3,4-b]indole-4-carbonitrile]
39 | 4.12 | O=C1NCCc2c1[nH]c1ccc(I)cc21 [Example 120, 6-iodo-2,3,4,9-tetrahydro-1H-beta-carbolin-1-one]
40 | < 3.70 | COc1ccc([N+](=O)[O-])c2c3c(n(C)c12)C(=O)NCC3 [Example 259, 8-methoxy-9-methyl-5-nitro-2,3,4,9-tetrahydro-1H-beta-carbolin-1-one]
41 | 3.86 | CCCC1Cc2c([nH]c3ccc(OC)cc23)C(C(=O)O)N1 (stereo not drawn) [Example 148, 6-methoxy-3-propyl-2,3,4,9-tetrahydro-1H-beta-carboline-1-carboxylic acid]
